Here are results for 1 substance from US20230416785A1, “NUCLEASE AND APPLICATION THEREOF” (CRISP-HR Therapeutics, Inc., priority 2020, published 2023).

Holding throughout (assay type): cell-based, human
For data set [1], the system named is H1299 cells. The data set is described as follows: Cellular viability of transfected H1299 cells (resazurin assay). Conditions: for cellular viability compared to RLucRT alone: H1299 cells, AAVS1 G1 or G2 plus RLucRT, two days. An excerpt: (§1) Next the viability of transfected cells was quantified via resazurin after two days, then cells were washed with PBS, then lysed and luminescence quantified via plate reader (FIG. 4B). […] Next Luminescence was quantified via the Renilla-Glo Luciferase Assay System (Promega) using a 96 well plate reader with luminescence capabilities (Tecan). After data collection, raw luminescence was background subtracted from non-transfected control cells, corrected for cellular viability, and plotted in FIG. 4D.
Unless otherwise noted, adherent cells (A549 or H1299) were seeded in 96 well plates and grown in either 50/50 F-12/DMEM or RPMI-1640 respectively, supplemented with 5% FBS and grown to roughly 70% confluency. Cells were then transfected with either Cal-Phos as described in Chen 2012 or Lipofectamine 3000 (Thermofisher). Fresh media was exchanged the next day and cellular viability was quantified on day 2.
20 μL of 0.15 mg/mL Resazurin solution was added to cells either plated in 96 well plates for all cell lines, which were then incubated for ˜4 hours at 37° C. Cellular toxicity was quantified using a Tecan SpectraFlour Plus plate reader (Tecan) using a 535/595 filter set. Raw data was then normalized to the mean of the untransfected controls and plotted as described.
(§2) After two days, cellular viability was quantified via Resazurin, then washed with PBS and lysed with 25 μL of cell lysis buffer, and luciferase activity was quantified via Renilla Luciferase Assay (Promega) and using a Tecan Infinite Mplex plate reader.
(The colour change of resazurin is a common sign of viable cells or microbes.)

Data set [2] relates to intergenic region on Chromosome 6 (Int-G2, Int-G3). The data set is described as follows: PuroRT HDR quantification in K562 cells (puromycin survival).
Description: The target integration site is approximately ˜1 kb to the 3′ end of the human H2B gene on Chromosome 6, an intergenic region which has no predicted genes or long non-coding RNA.
Next, to assay HDR rates, K562 cells were again used instead of A549 cells, as the lack of a functional p53 gene should help to deconvolute HDR rates from cellular toxicity effects. […] After two days, DNA was extracted from ˜ 1/10 of surviving cells and used for analysis of Puro RT genomic integration. The next day, 0.5 mg/mL puromycin was added, and after three days cellular survival was quantified via resazurin assay as described previously.
After two days, 1/10 of cells were taken for DNA extraction, while the rest were treated with 0.5 μg/mL puromycin. Cells were grown for a further 3 days then viability quantified via Resazurin assay.
For data set [3], the system named is AAVS1. The data set is described as follows: RLucRT luminescence HDR assay in H1299 cells. Conditions: for luminescence relative to Cas9: RLucRT (2.0 kb). The protocol: FIG. 4B illustrates experimental procedures for RLucRT experiments. Diagram showing experimental procedure for the dsDNA RLucRT HDR assay in H1299 cells. […] After two days, cellular viability is quantified via Resazurin assay, then cells are washed with PBS then lysed. Lysate is then incubated with Coelenterazine, and luminescence immediately quantified via plate reader.
For these experiments, the well characterized safe harbor site AAVS1 was used combined with previously established and functional guide RNAs AAVS1 T1 and T2, which will be referred to as G1 and G2 respectively hereafter. […] As with the puromycin resistance cassette, PCR amplified dsDNA was used as opposed to plasmids to avoid confounding results when quantifying HDR rates, and to avoid extra integration of plasmid specific sequences in the genome.
as §1, §2

For data set [4], the system named is AAVS1. As to the kind of experiment: RLucRT HDR assay in A549 cells. Conditions: G1.
Data set [5] relates to CDH1. As to the kind of experiment: CDH1:mCherry knock-in in HEK293 cells. The following applies: Ecad-G1. The protocol:
After three days, media was replaced with HBSS (to reduce background for imaging) imaged using an Cytation5 imaging system. Imaging was performed by taking a 6×6 stitched image in the middle of the well using an 10× magnification lens, where both brightfield and RFP images were acquired. HDR rates were quantified via ImageJ, two independent replicates were performed per treatment. FIG. 13A illustrates a Cadherin1:mCherry RT design showing the human genomic region surrounding the last exon (exon 16) of Cadherin1. Two different gRNAs are denoted by black arrows (G1, G2), with arrow direction indicating the targeted strand. A repair template was constructed containing about 750 bp long 5′ and 3′ Homology arms, exon 16 of Cadherin1, silent mutations introduced to prevent gRNA binding to the RT, and a direct fusion of the fluorescent protein mCherry. FIG. 13B illustrates quantification of Cadherin1:mCherry HDR rate in H1299 cells showing the average mCherry+ cells per image section (>10 for all conditions) imaged at day 3 post transfection.

Data set [6] relates to Safe Harbor Site (SHS)-231. The data set is described as follows: SHS-231 mNeon knock-in in H1299 cells. The source says: After reaching confluency, cells were tryspinized and seeded in 6 well plates, which were then imaged at 10× magnification using a Leica THUNDER Epifluorescent microscope. After imaging, thresholds and ROIs for mNeon+ cells were generated using FIJI (ImageJ).
After 7 days, cells were tryspinized and transferred to 6 well plates, and grown for an additional 7 days. On Day 14, media was replaced with HBSS (to reduce background for imaging) and imaged using a Cytation5 imaging system. Imaging was performed by taking a 6×6 stitched image in the middle of the well using an 10× magnification lens, where both brightfield and RFP images were acquired. HDR rates were quantified via ImageJ, two independent replicates were performed per treatment.

The test system of data set [7] is U2OS cells. The data set is described as follows: RPA foci quantification in U2OS cells. The protocol:
After two days cells, cells were prepared for imaging as in Murkherjee et al 2015. Cytoplasm was extracted via two sequential 10 minute washes on ice consisting of Extraction Buffer 1: 10 mM PIPES, pH 7.0; 100 mM NaCl; 300 mM Sucrose; 3 mM MgCl2; 1 mM EGTA, 0.5% Triton X-100 and Extraction Buffer 2: 10 mM Tris-HCl, pH 7.5; 10 mM NaCl; 3 mM MgCl2, 1% Tween 40, 0.5% sodium deoxycholate. Cells were then fixed using 4% PFA for 20 minutes at RT, then washed three times with PBST, blocked in 5% goat-serum for 30 minutes at RT, then incubated overnight at 4° C. with 1:1000 dilution of mouse anti-RPA (Calbiochem; Catalog no: NA191). Next day cells were washed 5× with PBST with 20 minutes per wash, then incubated overnight at 4° C. with a 1:1000 dilution of anti-mouse Alexa fluor 568 (Thermo Fisher). Cells were washed next day cells were washed 5× with PBST with 20 minutes per wash, then mounted in Vectashield with DAPI (Vector Labs; Catalog no: H-1200), and imaged at 10× using an Leica Stellaris Confocal Microscope. Foci per cell were quantified using a custom script to identify number of RPA foci per cell. […] After two days cells were fixed, then cytoplasm extracted on ice, then remaining nuclei were stained for RPA. At the end of staining, nuclei were labeled with DAPI and cells were imaged via confocal microscopy. Post-imaging nuclei identification and RPA thresholding allowed quantification of the number of RPA foci per nuclei.

Setting [8] is: SHS-231 G1, 14 Days, stitched images.
[9] abbreviates: SHS-231, hH2B-G4 or B-Catenin1, vs non-treated control cells.

Consider “Cas9-HR 8: hExo1(1-352)-Cas9 fusion of FIG. 1A; E. coli codon optimized vectors SEQ ID NO: 68 and 69”, for which, in data set [1] (H1299 cells (lack functional p53 gene), H2B-G4 guide), the “toxicity in H1299 cells compared to A549” value was “small reduction”. Further, the “cellular viability compared to RLucRT alone” value in data set [1] is given as “slightly reduced”. The “cellular viability compared to RLucRT alone” value in data set [1] (listed as Cas9-HR8) was “no gross changes in cellular viability”. The “PCR of genomic integration of Puro RT at 5′ and 3′ ends” value in data set [2] is “successful integration of the repair template”. In addition, the “nested junction PCR of RLucRT integration (5′ and 3′)” value in data set [3] (AAVS1-G1) is “Strong specific amplification”. The “luminescence relative to Cas9” value in data set [3] (AAVS1 G1) was about 2.5 fold. Besides, the “luminescence relative to Cas9” value in data set [3] (AAVS1 G2) is about 2 fold. Further, the “luminescence, AAVS1-G1 compared with AAVS1-G2” value in data set [3] (background subtracted) is “significantly higher luminescence”. The “increase in HDR rates compared to Cas9 (Cas9 normalized luminescence)” value in data set [3] (both G1 and G2) was 2-3 ×. In addition, the “HDR rates compared to Cas9 (normalized luminescence)” value in data set [4] is about 2.5 ×. For the same substance, in data set [5], the “HDR rates compared to Cas9 (normalized knock-in rates)” value is given as about 3.5 ×, the “absolute mCherry+ cells relative to Cas9-NT or repair template alone” value is “significant increases in mCherry+ cells” and the “numbers of mCherry+ cells compared to repair template” value is reported as “significantly increased numbers of mCherry+ cells”. Besides, the “cellular fluorescence (expression) levels of mNeon+ cells compared to Cas9” value in data set [6] (14 days) was “much more uniform and lower expression levels”. Moreover, the “absolute numbers of mNeon+ cells” value in data set [6] (SHS-231-G1, SHS-231-mNeon RT, 14 days post-transfection) came to 3652. For the same substance, the “mNeon cell counts normalized to Cas9” value in data set [6] (SHS-231-G2, two independent experiments) is listed as “increase of HDR rates”. For the same substance, in data set [6] (setting [8]), the “GFP+ cells compared to Cas9” value is given as “significantly more GFP+ cells” and the “total cells compared to Cas9” value is given as “significantly more total cells”. Also, in data set [7] (setting [9]), the “percent cells with 1-10 RPA foci” value was “increased the percentage of cells with RPA foci” and the “percent cells with any RPA foci” value is “increased the percentage of cells with RPA foci”. Moreover, the “percent cells with 11-100 RPA foci compared to Cas9” value in data set [7] (targeting hH2B and Beta-Catenin1) is recorded as “significant decrease in cells with 11-100 RPA foci”.
